Assay results: ChEMBL document CHEMBL5614428, “Synthesis and antibacterial activities of heterocyclic ring-fused 20(S)-protopanaxadiol derivatives” (Bioorg Med Chem, 2024)
Converted amounts (≈) assume the structure as drawn.

Tests used:
Type in all cases: functional
Staphylococcus aureus [1] = assay: Antibacterial activity against methicillin-resistant Staphylococcus aureus USA300 assessed as inhibition of bacterial growth incubated for 18 hrs by two fold serial dilution assay
Staphylococcus aureus [2] = assay: Antibacterial activity against Staphylococcus aureus Newman assessed as inhibition of bacterial growth incubated for 18 hrs by two fold serial dilution assay
Staphylococcus aureus [3] = assay: Antibacterial activity against methicillin-resistant Staphylococcus aureus NRS-271 assessed as inhibition of bacterial growth incubated for 18 hrs by two fold serial dilution assay
Staphylococcus aureus [4] = assay: Antibacterial activity against methicillin-resistant Staphylococcus aureus NRS-108 assessed as inhibition of bacterial growth incubated for 18 hrs by two fold serial dilution assay
Staphylococcus aureus [5] = assay: Antibacterial activity against methicillin-resistant Staphylococcus aureus NRS-1 assessed as inhibition of bacterial growth incubated for 18 hrs by two fold serial dilution assay
Staphylococcus aureus [6] = assay: Antibacterial activity against methicillin-resistant Staphylococcus aureus NRS-100 assessed as inhibition of bacterial growth incubated for 18 hrs by two fold serial dilution assay
Staphylococcus aureus [7] = assay: Antibacterial activity against methicillin-resistant Staphylococcus aureus XJ017 assessed as inhibition of bacterial growth incubated for 18 hrs by two fold serial dilution assay
Staphylococcus aureus [8] = assay: Antibacterial activity against methicillin-resistant Staphylococcus aureus NRS-70 assessed as inhibition of bacterial growth incubated for 18 hrs by two fold serial dilution assay
Staphylococcus aureus [9] = assay: Antibacterial activity against methicillin-resistant Staphylococcus aureus XJ036 assessed as inhibition of bacterial growth incubated for 18 hrs by two fold serial dilution assay

SMILES	MIC (Staphylococcus aureus [1])	MIC (Staphylococcus aureus [2])	MIC (Staphylococcus aureus [3])	MIC (Staphylococcus aureus [4])	MIC (Staphylococcus aureus [5])	MIC (Staphylococcus aureus [6])	MIC (Staphylococcus aureus [7])	MIC (Staphylococcus aureus [8])	MIC (Staphylococcus aureus [9])
CC1(C)c2nc3ccccc3nc2C[C@]2(C)[C@H]3C[C@@H](O)[C@@H]4[C@@H]([C@@](C)(O)CCC(=O)Nc5ccc(C(F)(F)F)cc5)CC[C@@]4(C)[C@]3(C)CC[C@@H]12	> 64 µg/mL	> 64 µg/mL	–	–	–	–	–	–	–
CC1(C)c2nc3ccccc3cc2C[C@]2(C)[C@H]3C[C@@H](O)[C@@H]4[C@@H]([C@@](C)(O)CCCO)CC[C@@]4(C)[C@]3(C)CC[C@@H]12	> 64 µg/mL	2 µg/mL (≈ 3.85 µM)	–	–	–	–	–	–	–
CCNC(=O)CC[C@](C)(O)[C@H]1CC[C@]2(C)[C@@H]1[C@H](O)C[C@@H]1[C@@]3(C)Cc4nc5ccccc5nc4C(C)(C)[C@@H]3CC[C@]12C	4 µg/mL (≈ 7.12 µM)	4 µg/mL (≈ 7.12 µM)	4 µg/mL (≈ 7.12 µM)	4 µg/mL (≈ 7.12 µM)	> 64 µg/mL	4 µg/mL (≈ 7.12 µM)	8 µg/mL (≈ 14.2 µM)	4 µg/mL (≈ 7.12 µM)	4 µg/mL (≈ 7.12 µM)
Cc1nc2c(o1)C(C)(C)[C@@H]1CC[C@]3(C)[C@H](C[C@@H](O)[C@@H]4[C@@H]([C@@](C)(O)CCCO)CC[C@]43C)[C@@]1(C)C2	> 64 µg/mL	> 64 µg/mL	–	–	–	–	–	–	–
CC1(C)c2nc3ccccc3nc2C[C@]2(C)[C@H]3C[C@@H](O)[C@@H]4[C@@H]([C@@](C)(O)CCC(=O)Nc5cnccn5)CC[C@@]4(C)[C@]3(C)CC[C@@H]12	2 µg/mL (≈ 3.27 µM)	2 µg/mL (≈ 3.27 µM)	8 µg/mL (≈ 13.1 µM)	4 µg/mL (≈ 6.54 µM)	> 64 µg/mL	4 µg/mL (≈ 6.54 µM)	16 µg/mL (≈ 26.2 µM)	4 µg/mL (≈ 6.54 µM)	4 µg/mL (≈ 6.54 µM)
CC1(C)c2nc3ccccc3nc2C[C@]2(C)[C@H]3C[C@@H](O)[C@@H]4[C@@H]([C@@](C)(O)CCC(=O)Nc5ncc[nH]5)CC[C@@]4(C)[C@]3(C)CC[C@@H]12	2 µg/mL (≈ 3.33 µM)	2 µg/mL (≈ 3.33 µM)	2 µg/mL (≈ 3.33 µM)	2 µg/mL (≈ 3.33 µM)	8 µg/mL (≈ 13.3 µM)	8 µg/mL (≈ 13.3 µM)	2 µg/mL (≈ 3.33 µM)	1 µg/mL (≈ 1.67 µM)	4 µg/mL (≈ 6.67 µM)
COc1ccc(NC(=O)CC[C@](C)(O)[C@H]2CC[C@]3(C)[C@@H]2[C@H](O)C[C@@H]2[C@@]4(C)Cc5nc6ccccc6nc5C(C)(C)[C@@H]4CC[C@]23C)cc1	> 64 µg/mL	> 64 µg/mL	–	–	–	–	–	–	–
CC1(C)c2nc3ccccc3nc2C[C@]2(C)[C@H]3C[C@@H](O)[C@@H]4[C@@H]([C@@](C)(O)CCC(=O)Nc5ccc6ncsc6c5)CC[C@@]4(C)[C@]3(C)CC[C@@H]12	> 64 µg/mL	> 64 µg/mL	–	–	–	–	–	–	–
CC1(C)c2nc3ccccc3nc2C[C@]2(C)[C@H]3C[C@@H](O)[C@@H]4[C@@H]([C@@](C)(O)CCC(=O)NC5CCCCC5)CC[C@@]4(C)[C@]3(C)CC[C@@H]12	> 64 µg/mL	> 64 µg/mL	–	–	–	–	–	–	–
CC1(C)c2nc3ccccc3nc2C[C@]2(C)[C@H]3C[C@@H](O)[C@@H]4[C@@H]([C@@](C)(O)CCC(=O)NC5CCCC5)CC[C@@]4(C)[C@]3(C)CC[C@@H]12	> 64 µg/mL	> 64 µg/mL	–	–	–	–	–	–	–
CC1(C)c2c(cnc3cccn23)C[C@]2(C)[C@H]3C[C@@H](O)[C@@H]4[C@@H]([C@@](C)(O)CCCO)CC[C@@]4(C)[C@]3(C)CC[C@@H]12	> 64 µg/mL	4 µg/mL (≈ 7.86 µM)	–	–	–	–	–	–	–
CC1(C)c2ncncc2C[C@]2(C)[C@H]3C[C@@H](O)[C@@H]4[C@@H]([C@@](C)(O)CCCO)CC[C@@]4(C)[C@]3(C)CC[C@@H]12	> 64 µg/mL	> 64 µg/mL	–	–	–	–	–	–	–
CCCNC(=O)CC[C@](C)(O)[C@H]1CC[C@]2(C)[C@@H]1[C@H](O)C[C@@H]1[C@@]3(C)Cc4nc5ccccc5nc4C(C)(C)[C@@H]3CC[C@]12C	> 64 µg/mL	> 64 µg/mL	–	–	–	–	–	–	–
CC1(C)S[C@@H]2[C@H](NC(=O)[C@H](N)c3ccccc3)C(=O)N2[C@H]1C(=O)O [AMPICILLIN]	–	–	4 µg/mL (≈ 11.4 µM)	2 µg/mL (≈ 5.72 µM)	–	0.063 µg/mL (≈ 0.18 µM)	32 µg/mL (≈ 91.6 µM)	8 µg/mL (≈ 22.9 µM)	8 µg/mL (≈ 22.9 µM)
COC(=O)CC[C@](C)(O)[C@H]1CC[C@]2(C)[C@@H]1[C@H](O)C[C@@H]1[C@@]3(C)Cc4nc5ccccc5nc4C(C)(C)[C@@H]3CC[C@]12C	> 64 µg/mL	> 64 µg/mL	–	–	–	–	–	–	–
CC1(C)c2nc3ccccc3nc2C[C@]2(C)[C@H]3C[C@@H](O)[C@@H]4[C@@H]([C@@](C)(O)CCC(=O)Nc5ccc6nccnc6c5)CC[C@@]4(C)[C@]3(C)CC[C@@H]12	> 64 µg/mL	> 64 µg/mL	–	–	–	–	–	–	–

SMILES	MIC (Staphylococcus aureus [1])	MIC (Staphylococcus aureus [2])	MIC (Staphylococcus aureus [3])	MIC (Staphylococcus aureus [4])	MIC (Staphylococcus aureus [5])	MIC (Staphylococcus aureus [6])	MIC (Staphylococcus aureus [7])	MIC (Staphylococcus aureus [8])	MIC (Staphylococcus aureus [9])
CC1(C)c2nc3ccccc3nc2C[C@]2(C)[C@H]3C[C@@H](O)[C@@H]4[C@@H]([C@@](C)(O)CCC(=O)O)CC[C@@]4(C)[C@]3(C)CC[C@@H]12	16 µg/mL (≈ 29.9 µM)	16 µg/mL (≈ 29.9 µM)	–	–	–	–	–	–	–
CC1(C)c2nc3ccccc3nc2C[C@]2(C)[C@H]3C[C@@H](O)[C@@H]4[C@@H]([C@@](C)(O)CCC(=O)Nc5ccccc5)CC[C@@]4(C)[C@]3(C)CC[C@@H]12	> 64 µg/mL	> 64 µg/mL	–	–	–	–	–	–	–
CC1(C)c2nc3ccccc3nc2C[C@]2(C)[C@H]3C[C@@H](O)[C@@H]4[C@@H]([C@@](C)(O)CCCO)CC[C@@]4(C)[C@]3(C)CC[C@@H]12	8 µg/mL (≈ 15.4 µM)	4 µg/mL (≈ 7.68 µM)	–	–	–	–	–	–	–
CC1(C)c2[nH]c3ccccc3c2C[C@]2(C)[C@H]3C[C@@H](O)[C@@H]4[C@@H]([C@@](C)(O)CCCO)CC[C@@]4(C)[C@]3(C)CC[C@@H]12	32 µg/mL (≈ 63 µM)	4 µg/mL (≈ 7.88 µM)	–	–	–	–	–	–	–
CN(C)C(=O)CC[C@](C)(O)[C@H]1CC[C@]2(C)[C@@H]1[C@H](O)C[C@@H]1[C@@]3(C)Cc4nc5ccccc5nc4C(C)(C)[C@@H]3CC[C@]12C	4 µg/mL (≈ 7.12 µM)	4 µg/mL (≈ 7.12 µM)	4 µg/mL (≈ 7.12 µM)	4 µg/mL (≈ 7.12 µM)	4 µg/mL (≈ 7.12 µM)	8 µg/mL (≈ 14.2 µM)	> 64 µg/mL	4 µg/mL (≈ 7.12 µM)	8 µg/mL (≈ 14.2 µM)
CC1(C)c2nc3ccccc3nc2C[C@]2(C)[C@H]3C[C@@H](O)[C@@H]4[C@@H]([C@@](C)(O)CCC(=O)Nc5cccnc5)CC[C@@]4(C)[C@]3(C)CC[C@@H]12	4 µg/mL (≈ 6.55 µM)	2 µg/mL (≈ 3.27 µM)	16 µg/mL (≈ 26.2 µM)	8 µg/mL (≈ 13.1 µM)	> 64 µg/mL	8 µg/mL (≈ 13.1 µM)	16 µg/mL (≈ 26.2 µM)	8 µg/mL (≈ 13.1 µM)	4 µg/mL (≈ 6.55 µM)
CC1(C)c2nc3ccccc3nc2C[C@]2(C)[C@H]3C[C@@H](O)[C@@H]4[C@@H]([C@]5(C)CCCO5)CC[C@@]4(C)[C@]3(C)CC[C@@H]12	> 64 µg/mL	> 64 µg/mL	–	–	–	–	–	–	–
CC1(C)c2nc(N)ncc2C[C@]2(C)[C@H]3C[C@@H](O)[C@@H]4[C@@H]([C@@](C)(O)CCCO)CC[C@@]4(C)[C@]3(C)CC[C@@H]12	32 µg/mL (≈ 65.9 µM)	16 µg/mL (≈ 32.9 µM)	–	–	–	–	–	–	–
CC1(C)c2nc(N)sc2C[C@]2(C)[C@H]3C[C@@H](O)[C@@H]4[C@@H]([C@@](C)(O)CCCO)CC[C@@]4(C)[C@]3(C)CC[C@@H]12	> 64 µg/mL	16 µg/mL (≈ 32.6 µM)	–	–	–	–	–	–	–
CCCCNC(=O)CC[C@](C)(O)[C@H]1CC[C@]2(C)[C@@H]1[C@H](O)C[C@@H]1[C@@]3(C)Cc4nc5ccccc5nc4C(C)(C)[C@@H]3CC[C@]12C	> 64 µg/mL	> 64 µg/mL	–	–	–	–	–	–	–
CC(C)=CCC[C@](C)(O)[C@H]1CC[C@]2(C)[C@@H]1[C@H](O)C[C@@H]1[C@@]3(C)Cc4nc5ccccc5nc4C(C)(C)[C@@H]3CC[C@]12C	> 64 µg/mL	> 64 µg/mL	–	–	–	–	–	–	–
CNC(=O)CC[C@](C)(O)[C@H]1CC[C@]2(C)[C@@H]1[C@H](O)C[C@@H]1[C@@]3(C)Cc4nc5ccccc5nc4C(C)(C)[C@@H]3CC[C@]12C	4 µg/mL (≈ 7.3 µM)	4 µg/mL (≈ 7.3 µM)	8 µg/mL (≈ 14.6 µM)	4 µg/mL (≈ 7.3 µM)	4 µg/mL (≈ 7.3 µM)	8 µg/mL (≈ 14.6 µM)	16 µg/mL (≈ 29.2 µM)	4 µg/mL (≈ 7.3 µM)	8 µg/mL (≈ 14.6 µM)
C[C@H]1COc2c(N3CCN(C)CC3)c(F)cc3c(=O)c(C(=O)O)cn1c23 [LEVOFLOXACIN ANHYDROUS]	–	–	4 µg/mL (≈ 11.1 µM)	0.125 µg/mL (≈ 0.346 µM)	16 µg/mL (≈ 44.3 µM)	0.125 µg/mL (≈ 0.346 µM)	64 µg/mL (≈ 177 µM)	0.125 µg/mL (≈ 0.346 µM)	32 µg/mL (≈ 88.6 µM)
CC1(C)c2nccnc2C[C@]2(C)[C@H]3C[C@@H](O)[C@@H]4[C@@H]([C@@](C)(O)CCCO)CC[C@@]4(C)[C@]3(C)CC[C@@H]12	> 64 µg/mL	> 64 µg/mL	–	–	–	–	–	–	–
CC1(C)c2oncc2C[C@]2(C)[C@H]3C[C@@H](O)[C@@H]4[C@@H]([C@@](C)(O)CCCO)CC[C@@]4(C)[C@]3(C)CC[C@@H]12	> 64 µg/mL	> 64 µg/mL	–	–	–	–	–	–	–
CC1(C)c2nc3ccccc3nc2C[C@]2(C)[C@H]3C[C@@H](O)[C@@H]4[C@@H]([C@]5(C)CCC(=O)O5)CC[C@@]4(C)[C@]3(C)CC[C@@H]12	8 µg/mL (≈ 15.5 µM)	4 µg/mL (≈ 7.74 µM)	–	–	–	–	–	–	–
